ChEMBL document CHEMBL4602694, “Suppression of Drug-Resistant Non-Small-Cell Lung Cancer with Inhibitors Targeting Minichromosomal Maintenance Protein” (J Med Chem, 2020)
The source made the active and inactive calls. The calls are words filed in the database; no cut-off is given here.

Tests used:
[1] = Toxicity in athymic nude BALB/c mouse xenografted with human NCI-H1975 cells assessed as effect on kidney at 1 or 4 mg/kg, ip administered for 4 weeks; type: organism-based; settings: in vivo, 672 h
[2] = molecular target: T1, DNA replication licensing factor MCM6 (Homo sapiens) (UniProt Q14566); test: Induction of ubiquitination of MCM6 in human NCI-H1975 cells incubated for 24 hrs by immunoblot analysis; type: cell-based
T1 sequence (whole entry): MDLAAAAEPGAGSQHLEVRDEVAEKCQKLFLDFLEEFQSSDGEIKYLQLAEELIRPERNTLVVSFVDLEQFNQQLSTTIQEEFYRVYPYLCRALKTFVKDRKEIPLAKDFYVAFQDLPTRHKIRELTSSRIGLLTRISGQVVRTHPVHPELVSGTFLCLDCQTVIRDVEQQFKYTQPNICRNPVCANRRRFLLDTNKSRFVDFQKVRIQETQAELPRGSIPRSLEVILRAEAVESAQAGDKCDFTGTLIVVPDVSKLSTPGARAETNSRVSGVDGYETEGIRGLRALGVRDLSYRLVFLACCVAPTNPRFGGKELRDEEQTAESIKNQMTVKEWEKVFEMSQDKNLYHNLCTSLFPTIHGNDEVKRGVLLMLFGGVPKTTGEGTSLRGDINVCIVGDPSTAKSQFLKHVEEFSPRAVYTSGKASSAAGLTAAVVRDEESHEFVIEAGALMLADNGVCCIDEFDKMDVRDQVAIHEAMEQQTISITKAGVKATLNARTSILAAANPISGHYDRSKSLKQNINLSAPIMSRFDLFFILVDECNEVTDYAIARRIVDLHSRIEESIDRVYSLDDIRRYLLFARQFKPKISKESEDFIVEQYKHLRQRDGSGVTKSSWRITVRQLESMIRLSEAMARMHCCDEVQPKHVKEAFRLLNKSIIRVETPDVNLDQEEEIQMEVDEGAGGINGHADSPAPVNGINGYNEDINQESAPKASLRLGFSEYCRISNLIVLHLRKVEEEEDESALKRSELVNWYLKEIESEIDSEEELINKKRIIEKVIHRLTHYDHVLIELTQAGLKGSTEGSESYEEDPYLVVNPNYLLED

NCI-H1975 [3] = test: Antiproliferative activity against human NCI-H1975 cells knock out SiRNA MCM2 assessed as reduction in cell viability incubated for 72 hrs by SRB assay relative to control; type: functional
[4] = Selectivity index, ratio of IC50 for human bronchial epithelial cells to IC50 for human CL1-0 cells; type: toxicity; settings: human bronchial epithelial cells versus CL1-0 cells, read-out: Ratio IC50
[5] = Toxicity in athymic nude BALB/c mouse xenografted with human NCI-H1975 cells assessed as effect on serum alanine transaminase at 1 or 4 mg/kg, ip administered for 4 weeks; type: organism-based; settings: in vivo, 672 h
[6] = system: DNA replication licensing factor MCM2 (Homo sapiens), P49736 [Q341A]; test: Induction of ubiquitination of FLAG-tagged MCM2 Q341A mutant (unknown origin) expressed in human 293T cells incubated for 4 hrs by magnetic beads technique based immunoblot analysis; type: cell-based; settings: HEK-293T
Chain of DNA replication licensing factor MCM2 (Homo sapiens), P49736 [Q341A] (P49736 whole entry Q341A): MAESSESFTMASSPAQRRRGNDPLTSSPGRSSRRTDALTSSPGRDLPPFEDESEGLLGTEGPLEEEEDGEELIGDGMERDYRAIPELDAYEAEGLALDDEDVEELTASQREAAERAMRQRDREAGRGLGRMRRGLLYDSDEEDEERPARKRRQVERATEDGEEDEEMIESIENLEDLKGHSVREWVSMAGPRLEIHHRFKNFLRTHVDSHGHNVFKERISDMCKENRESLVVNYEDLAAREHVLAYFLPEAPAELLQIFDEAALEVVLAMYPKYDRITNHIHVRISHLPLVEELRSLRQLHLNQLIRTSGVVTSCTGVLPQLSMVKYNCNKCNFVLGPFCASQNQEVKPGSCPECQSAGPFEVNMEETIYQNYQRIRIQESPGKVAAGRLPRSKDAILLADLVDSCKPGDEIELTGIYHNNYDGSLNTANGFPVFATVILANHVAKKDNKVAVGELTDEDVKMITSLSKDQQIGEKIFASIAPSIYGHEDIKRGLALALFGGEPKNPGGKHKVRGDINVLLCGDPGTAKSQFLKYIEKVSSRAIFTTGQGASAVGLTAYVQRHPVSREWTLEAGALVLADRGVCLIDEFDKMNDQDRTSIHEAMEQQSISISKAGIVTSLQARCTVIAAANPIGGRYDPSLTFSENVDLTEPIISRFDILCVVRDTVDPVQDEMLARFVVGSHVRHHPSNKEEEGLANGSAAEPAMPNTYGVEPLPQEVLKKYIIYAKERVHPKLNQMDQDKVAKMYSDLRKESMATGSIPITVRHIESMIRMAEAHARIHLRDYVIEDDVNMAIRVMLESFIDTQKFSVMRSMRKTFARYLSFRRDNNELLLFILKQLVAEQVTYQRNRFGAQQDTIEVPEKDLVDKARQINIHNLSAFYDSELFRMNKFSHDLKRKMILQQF

NCI-H1975 [7] = test: Induction of apoptosis in human NCI-H1975 cells assessed as increase in cleaved PARP1 level at 140 nM incubated upto 72 hrs by immunoblotting analysis; type: functional, cell-based
NCI-H1975 [8] = test: Induction of apoptosis in human NCI-H1975 cells assessed as increase in cleaved caspase 3 level at 140 nM incubated upto 72 hrs by immunoblotting analysis; type: functional, cell-based
[9] = Toxicity in athymic nude BALB/c mouse xenografted with human NCI-H1975 cells assessed as reduction in body weight at 1 or 4 mg/kg, ip administered for 4 weeks; type: organism-based; settings: in vivo, 672 h
PC-9 = test: Antiproliferative activity against human PC9 cells assessed as reduction in cell viability incubated for 72 hrs by SRB assay; type: functional, cell-based; settings: PC-9, 72 h
[10] = Antiproliferative activity against human PC9IR cells assessed as reduction in cell viability incubated for 72 hrs by SRB assay; type: functional, cell-based
NCI-H1975 [11] = test: Cell cycle arrest in human NCI-H1975 cells assessed as accumulation in G2/M phase at 140 nM incubated for 72 hrs by propidium iodide base flow cytometry analysis (reference value: 17 %); type: functional
[12] = molecular target: T1, DNA replication licensing factor MCM6 (Homo sapiens); test: Induction of ubiquitination of MCM6 in human H3255 cells incubated for 24 hrs by immunoblot analysis; type: cell-based; settings: NCI-H3255
NCI-H1975 [13] = test: Antiproliferative activity against human NCI-H1975 cells harboring FLAG-tagged MCM2 Q341A mutant assessed as reduction in cell viability incubated for 72 hrs by SRB assay; type: functional, cell-based; settings: NCI-H1975, 72 h
NCI-H1975 [14] = test: Antitumor activity against human NCI-H1975 cells xenografted in athymic nude BALB/c mouse assessed as tumor growth at 1 mg/kg, ip administered for 4 weeks (reference value: 1217 +/- 516.6 cu.mm); type: functional
[15] = Toxicity in athymic nude BALB/c mouse xenografted with human NCI-H1975 cells assessed as effect on liver at 1 or 4 mg/kg, ip administered for 4 weeks; type: organism-based; settings: in vivo, 672 h
[16] = molecular target: T2, DNA replication licensing factor MCM3 (Homo sapiens) (UniProt P25205); test: Induction of ubiquitination of MCM3 in human NCI-H1975 cells incubated for 72 hrs by immunoblot analysis (reference value: 1); type: cell-based
T2 sequence (whole entry): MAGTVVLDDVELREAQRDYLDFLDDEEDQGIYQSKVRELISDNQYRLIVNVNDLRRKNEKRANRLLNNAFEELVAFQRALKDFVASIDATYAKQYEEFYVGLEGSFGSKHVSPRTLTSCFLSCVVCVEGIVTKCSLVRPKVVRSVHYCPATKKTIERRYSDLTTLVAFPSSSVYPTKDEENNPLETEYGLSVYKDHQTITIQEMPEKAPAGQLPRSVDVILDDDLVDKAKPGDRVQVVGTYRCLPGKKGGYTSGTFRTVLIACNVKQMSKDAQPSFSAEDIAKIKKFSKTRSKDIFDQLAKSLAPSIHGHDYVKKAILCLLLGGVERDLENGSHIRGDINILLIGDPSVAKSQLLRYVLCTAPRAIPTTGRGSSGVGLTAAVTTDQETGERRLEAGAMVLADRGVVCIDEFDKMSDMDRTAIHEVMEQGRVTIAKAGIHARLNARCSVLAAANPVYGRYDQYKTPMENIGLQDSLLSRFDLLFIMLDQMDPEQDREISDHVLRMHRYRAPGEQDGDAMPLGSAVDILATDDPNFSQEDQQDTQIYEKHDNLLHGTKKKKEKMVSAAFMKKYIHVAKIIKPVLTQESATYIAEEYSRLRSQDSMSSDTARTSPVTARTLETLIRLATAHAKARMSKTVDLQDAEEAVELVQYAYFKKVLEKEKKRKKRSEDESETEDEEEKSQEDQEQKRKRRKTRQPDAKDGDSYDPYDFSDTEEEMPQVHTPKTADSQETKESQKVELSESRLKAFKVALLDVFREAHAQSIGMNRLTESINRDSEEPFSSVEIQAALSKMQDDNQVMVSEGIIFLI

Cc1oc2c(c1C(=O)NCCCn1ccnc1)C(=O)c1ccccc1C2=O
Activity [1]: Non-Toxic | Activity [2]: Dose-dependent effect | inhibition (INH) (NCI-H1975 [3]): 33% | selectivity ratio [4]: > 10 | Activity [5]: Non-Toxic | Activity [6]: Active | Activity (NCI-H1975 [7]): Active | Activity (NCI-H1975 [8]): Active | Activity [9]: Non-Toxic | IC50 (PC-9): < 100 nM | IC50 [10]: < 100 nM | Activity (NCI-H1975 [11]): 38% | Activity [12]: Active | IC50 (NCI-H1975 [13]): 150 nM | Activity (NCI-H1975 [14]): 701.2 mm3 | Activity [15]: Non-Toxic | Activity [16]: 0.1
